Patent US11142533B2, “Macrocycles for use in treating disease” (TURNING POINT THERAPEUTICS, INC., priority 2019, dated 2021)
Values after ≈ are worked out from the molar mass of the structure shown.

How the values were obtained:
KM12 (TPM3-TRKA) = KM12 (TPM3-TRKA) (Homo sapiens, UniProt P04629); experiment: Cell proliferation assay (CellTiter-Glo)
[1] = Solubility test in phosphate buffer; assay type: physicochemical; conditions: aqueous buffer, thermodynamic from solid; phosphate buffer pH 7.4, room temperature
Protocol: Aliquot of 1.035 mL phosphate buffer (PB) (pH 7.4) was added into 2.07 mg of the test compound (for a 2 mg·mL^−1 upper limiting solubility determination) in a 1.5 mL tubes. The mixture was ultrasonicly treated for 10 min and rotated on rotator at room temperature for more than 8 hr. After rotation, the tube was ultrasonicly treated for 10 min and centrifuged at 13000 rpm for 15 min. 0.3 mL of the supernatant was transferred into a 0.6 mL tube and discarded after rotated for 5 min for rinsing, then about 0.6 mL of the residual supernatant was transferred into the rinsed tube and centrifuged again at 13000 rpm for 15 min. The supernatant after every centrifugation was appropriately diluted and transferred for LC-MS/MS analysis where a standard curve was constructed with 7 concentration levels (2, 4, 10, 20, 40, 100 and 200 μg mL^−1) and used for the quantitation of the analyte in PB.

KG-1 cell (OP2-FGFR1) = KG-1 cell (OP2-FGFR1) (Homo sapiens, UniProt P11362); experiment: Cell proliferation assay (CellTiter-Glo)
KG-1 cell (OP2-FGFR1), sequence (P11362 456-822 limits assumed): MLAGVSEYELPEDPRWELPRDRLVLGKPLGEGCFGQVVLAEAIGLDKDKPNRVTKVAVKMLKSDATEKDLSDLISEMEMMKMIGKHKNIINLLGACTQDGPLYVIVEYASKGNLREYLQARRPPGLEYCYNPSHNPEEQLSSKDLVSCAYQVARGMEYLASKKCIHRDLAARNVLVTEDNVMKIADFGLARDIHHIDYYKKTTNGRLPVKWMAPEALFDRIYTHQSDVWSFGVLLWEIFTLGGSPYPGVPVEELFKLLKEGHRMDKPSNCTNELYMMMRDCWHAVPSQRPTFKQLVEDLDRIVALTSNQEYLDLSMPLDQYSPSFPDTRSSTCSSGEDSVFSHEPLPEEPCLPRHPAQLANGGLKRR

[2] = Mouse pharmacokinetic study; assay type: in vivo; conditions: single oral dose (dose level not given), plasma
Protocol: To prepare 1 L of the vehicle solution (0.5% CMC and 1.0% Tween 80), 10 g of Tween 80 was mixed with 985 mL of water into a 1 L bottle. The mixture was stirred until Tween 80 was completely dissolved. With continued stirring, 5 g of CMC was very slowly sprinkled into the solution. Stirring was continued until all CMC was dissolved, which might take several hr. The resulting vehicle solution was stored at 4° C.
The compound was suspended in the vehicle solution and the mice were orally administrated with a single dose of the compound at the selected dose level. The blood samples were collected according to the defined time table into tubes containing K2-EDTA, followed by gentle mixing to assure distribution of the anti-coagulant. Immediately after the blood sample was collected and mixed, it was placed on ice. The samples were then centrifuged at 4° C. for 10 minutes at 5,000 RPM. The plasma was harvested into pre-labeled tubes and stored at −80° C. until analyzed by LC-MS/MS.

[3] = Liver microsomal stability; assay type: in vitro ADME; conditions: pH 7.4, 1 μM compound, 0.5 mg/mL liver microsome protein
Protocol: The test compound stock solution was prepared by weighing 1.07 mg and dissolving in 0.261 mL of DMSO to achieve the concentration of 10 mM. Working solution of the test compound was prepared by diluting stock solution using DMSO to yield the concentration of 300 μM.
The assay was carried out in 96-well microtiter plates. In each well, the reaction mixture (25 μL) contained the test compound at the final concentration of 1 μM, 0.5 mg/mL liver microsome protein, and 1 mM NADPH in 100 mM potassium phosphate, pH 7.4 buffer with 3.3 mM MgCl2. The mixtures were incubated in duplicate at 37° C. for 0, 15, 30 or 60 minutes, and 150 μL of quench solution (acetonitrile with 0.1% formic acid) with internal standard (bucetin for positive ESI mode) was added into each well of reaction to terminate the reaction. The plates were then sealed and centrifuged at 4° C. for 15 minutes at 4000 rpm. The resulting supernatant was transferred to fresh plates for LC-MS/MS analysis of the test compounds. Verapamil was used as the positive control to validate the assay system.
All samples were analyzed with LC-MS/MS using an AB Sciex API 4000 instrument, coupled to a Shimadzu LC-20AD LC Pump system. Analytical samples were separated using a Waters Atlantis T3 dC18 reverse phase HPLC column (20 mm×2.1 mm) at a flow rate of 0.5 mL/min. The mobile phase consisted of 0.1% formic acid in water (solvent A) and 0.1% formic acid in acetonitrile (solvent B).
The extent of metabolism was calculated based on the disappearance of the test compound, compared to its initial concentration. The initial rates of clearance of test compounds were calculated using linear regression plot of semi-log % remaining of compounds versus time. The elimination rate constant (equals to negative slope) of the linear regression plot was then used to determine t112 and the intrinsic clearance (CLInt) using the following formula: k=−slope t1/2=0.693/k CLint=k/Cprotein
Where Cprotein (mg/mL) is the microsomal protein concentration in the incubation system.

[4] = female, mouse, liver microsomes

KM12 (TPM3-TRKA), sequence (P04629 with tags, fused parts or gaps): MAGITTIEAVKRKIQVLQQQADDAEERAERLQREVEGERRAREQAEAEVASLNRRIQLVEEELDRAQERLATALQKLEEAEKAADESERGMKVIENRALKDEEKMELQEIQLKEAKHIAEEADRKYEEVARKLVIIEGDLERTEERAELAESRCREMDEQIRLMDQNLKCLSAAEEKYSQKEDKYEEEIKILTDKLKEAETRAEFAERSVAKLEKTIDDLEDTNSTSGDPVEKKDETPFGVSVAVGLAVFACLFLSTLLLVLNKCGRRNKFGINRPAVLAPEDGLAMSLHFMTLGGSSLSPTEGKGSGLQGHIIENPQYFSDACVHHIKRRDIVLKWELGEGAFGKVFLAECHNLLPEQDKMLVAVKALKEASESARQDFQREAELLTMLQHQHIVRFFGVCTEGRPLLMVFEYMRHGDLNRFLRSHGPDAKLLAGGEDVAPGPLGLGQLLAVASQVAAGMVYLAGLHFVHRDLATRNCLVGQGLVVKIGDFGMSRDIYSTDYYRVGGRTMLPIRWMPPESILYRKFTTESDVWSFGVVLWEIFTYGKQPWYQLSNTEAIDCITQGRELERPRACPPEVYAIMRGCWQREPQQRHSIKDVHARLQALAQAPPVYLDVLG

With `CC1(C)COc2ccc(F)cc2CN2c3nc4c(cnn4cc3OC[C@H]2C(F)F)C(=O)N1` [Compound 1, (4S)-4-(Difluoromethyl)-8-fluoro-13,13-dimethyl-3,4,13,14-tetrahydro-6H-18,1-(metheno)[1,4]oxazino[3,4-i]pyrazolo[4,3-f][1,4,8,10]benzoxatriazacyclotridecin-15(12H)-one] the IC50 (KM12 (TPM3-TRKA)) was less than 0.2 nM, the solubility [1] was 3.3 µg/mL (≈ 7.38 µM) and the IC50 (KG-1 cell (OP2-FGFR1)) was 554 nM. It also gave an AUC [2] of 11900 ng·h/mL, a Cmax [2] of 1750 ng/mL and a Tmax [2] of 2 h. It also gave a microsomal CLint at 1 µM [3, 4] of 11 µL/min/mg, a microsomal CLint at 1 µM ([3]; female, rat, liver microsomes) of 1.5 µL/min/mg and a microsomal CLint at 1 µM ([3]; human, pooled liver microsomes) of 8.3 µL/min/mg.
Work on `O=C1NCC2(CC2)COc2ccc(F)cc2CN2c3nc4c1cnn4cc3OC[C@H]2C(F)F` [Compound 2, (16′S)-16′-(Difluoromethyl)-12′-fluoro-4′H,5′H,6′H,8′H,14′H,16′H,17′H-spiro[cyclopropane-1,7′-[1,19](metheno)[1,4]oxazino[3,4-j]pyrazolo[4,3-g][1,5,9,11]benzoxatriazacyclotetradecin]-4′-one] yielded an IC50 (KM12 (TPM3-TRKA)) of less than 0.2 nM, a solubility [1] of 2.6 µg/mL (≈ 5.66 µM) and an IC50 (KG-1 cell (OP2-FGFR1)) of 3.8 nM. The AUC [2] was 14600 ng·h/mL, the Cmax [2] was 2510 ng/mL and the Tmax [2] was 2 h. It also gave a microsomal CLint at 1 µM [3, 4] of 25 µL/min/mg, a microsomal CLint at 1 µM ([3]; female, rat, liver microsomes) of 3.5 µL/min/mg and a microsomal CLint at 1 µM ([3]; human, pooled liver microsomes) of 8.8 µL/min/mg.
